Experimental data: patent US20210230213A1, “ARAMCHOL SALTS” (GALMED RESEARCH AND DEVELOPMENT LTD., priority 2013, published 2021)
≈ marks a conversion by molar mass, not a printed value. Where a name gives a salt, the structure may show the parent alone. Read-outs that look alike come from different tables or passages of the source.

What was measured:
[1] = Dynamic Vapour Sorption (DVS); assay type: physicochemical
Experimental: The samples was weighed in a glass pan, typically 20-30 mg, and equilibrated at 0% relative humidity (RH). After the material had dried, the RH was increased with 10% per step for 1 hour per increment, ending at […].
The software used for data collection was DVSWin v3.01 No Video. Data analysis was performed using DVS Standard Analysis Suite v6.3.0 (Standard).
After completion of sorption cycle, the material was dried. XRPD was performed before and after DVS.

[2] = In vivo permeability / PK after intrajejunal administration in cannulated rats (Example 7); design: species or system male Wistar rats; details: rat; for Cmax: 100 mg/kg (based on free acid) in PBS 30 mg/mL, plasma Aramchol (free acid); for Tmax: median
Experimental: An in vivo permeability study of Aramchol salts was performed in male Wistar rats cannulated in the jugular vein and in the jejunum. Intestinal cannulation was performed in order to bypass protonation of Aramchol salts in acidic gastric pH. Aramchol salts solubilized in PBS (30 mg/mL) were administered to rats intestine (jejunum) in a dose of 100 mg/kg (based on free acid), via a cannula inserted into the proximal side of the jejunum. A suspension of Aramchol free acid (in PBS, 30 mg/mL) was administered via the same route and was used as control. Blood samples were withdrawn via a cannula inserted into jugular vein at pre-determined time points (pre-dose, 1 hr, 2 hr, 4 hr, 8 hr, 12 hr, 24 hr post dose). Plasma concentrations of Aramchol (free acid) were measured using a liquid chromatography-tandem mass spectrometry (LC-MS-MS) method by Analyst Bioanalytical Laboratories, Israel. All PK parameters were calculated using non-compartmental analysis. Only those plasma concentrations equal to or greater than the lower limit of quantitation (LOQ) (48.66 ng/mL) were used in the analysis. Plasma concentrations <LOQ that occurred from pre-dose to the first concentration ≥LOQ were treated as 0. Actual sampling times were used for all pharmacokinetic analyses. The following PK parameters were calculated: maximum plasma concentration (Cmax), time to Cmax (Tmax), area under the plasma concentration-time curve from time of administration until the last plasma concentration (AUC0-4), AUC/dose, elimination half-life (t½). Cmax and Tmax were taken directly from the data. Area under the curve from zero to the final sample with a concentration ≥LOQ. AUC0-4 was calculated using the linear trapezoidal method.

[3] = Fill weight of size 00 HPMC capsule; assay type: physicochemical; details: hard HPMC capsule size 00, filled as is without tapping
From the text: Aramchol (free acid), and the three salts were filled as are, into hard HPMC (Hypromellose; Capsule size 00 (CapsCanada, ON, Canada) without taping, fill weight is presented in table 9.

[4] = Stability of Aramchol free acid; assay type: physicochemical; details: 6 months 40° C./75% RH; 12 months 25° C./60% RH; 30° C./65% RH
Experimental: For Aramchol free acid, 6 months stability data have been generated at 40° C./75% relative humidity and for 12 months at real time 25° C./60% relative humidity and also at the intermediate conditions of 30° C./65% relative humidity.

[5] = Twice daily administration for 10 days of Aramchol and Aramchol meglumine in humans (Example 9); assay type: in vivo; details: free acid 300 mg, meglumine salt 383 mg
Experimental: 300 mg aramchol free acid were administered to human subjects twice daily, and 383 mg aramchol meglumine salt were administered to human subjects twice daily, as detailed in FIG. 13.

[6] = Saturated solubility in buffer solutions and bio-relevant media at 37° C. (Example 6); assay type: physicochemical; details: for solubility at 24 h / solubility at 30 min: thermodynamic from solid
[7] = Clinical study, plasma Aramchol at steady state after 300 mg BID; assay type: in vivo, humans; details: human, po
[8] = Solubility of Aramchol (free acid) in aqueous media; assay type: physicochemical
in vivo = details: dog, in vivo
Experimental: Capsules containing 100 mg of Aramchol were dosed to dogs as either the free acid or the meglumine salt.
The complete data-set across all animals and time-points for each dose form (free acid or meglumine salt) were fit to single compartment PK models with first order rate of absorption Ka (h−1) and elimination parameterised by CL and V (rate of elimination=CL/V, h−1). For the meglumine salt group, the first dose data for M5 was removed.
Capsules containing 100 mg of Aramchol were dosed to dogs as either the free acid or the meglumine salt BID. […] A clinical study that investigated the plasma concentration of Aramchol after oral dosing of 300 mg BID at steady state was conducted in 16 healthy volunteers.

Bulk and tapped density = assay type: physicochemical
From the text: Measurements of tapped and bulk densities are used to predict the flow properties and compressibility of powders. These two properties are important for manufacture of solid dosage formulations, such as tablets and capsules. Compounds with low values of tapped and bulk densities may be subject to difficulties in tablet compression, and therefore may require additional processing for improving flow properties. […] Therefore, to improve flow properties a wet granulation process is used prior to tablet compression.

[9] = Aqueous solubility at 20° C., shake-flask, stepwise water addition (Example 2); assay type: physicochemical; details: for solubility: water, 20 °C, thermodynamic from solid, 20° C.
Experimental: The Aramchol salts of the present invention were further assessed for their solubility in water. […] 5 mg of each salt was weighed. Water was added stepwise until a clear solution was obtained (Table 2, solubility in water). The pH of each solution was measured (Table 2, pH after solubility).

physchem = details: 50 °C, organic solvent or mixture
[10] = water, Aramchol free acid and base 1:1, 50° C.
[11] = RH raised from 0% in 10% steps to 95% RH, stepwise, reversible
[12] = 100 mg/kg, mean ± standard error
[13] = Demi-Water (pH 7.8), 24 h, 37° C.
[14] = Phosphate buffer pH 7.0, 24 h, 37° C.
[15] = FaSSIF (pH 6.5), 30 min, 37° C.
[16] = FeSSIF (pH 5.0), 30 min, 37° C.
[17] = male, Wistar, plasma, 100 mg/kg, mean ± standard error
[18] = male, Wistar, plasma, 100 mg/kg, mean ± standard error, read-out: AUC 0-t
[19] = male, Wistar, plasma, 100 mg/kg, read-out: Tmax
[20] = male, Wistar, mean ± standard error, read-out: Cmax

Compound: 2-diethylamino-ethanol
- salt remains in solution after cooling to 20° C.: yes
- Dissolved (50 in g in 1) at 50° C. (50° C.): Yes
- Mass uptake (DVS) [1]: 12.1% (stepwise; reversible)

Compound: 3β-arachidylamido-7α,12α-dihydroxy-5β-cholan-24-oic acid lysine salt [L-Lysine]
- Dissolved (50 in g in 1) at 50° C. [10]: No
- Mass uptake (DVS) [1, 11]: 23.1% (stepwise, reversible)
- Cmax ([2]; mean ± standard error): 7294.2 ± 5463.0 (5) ng/mL
- AUC(0-t) [2, 12]: 26460.3 ± 9415.5 (5) hr × ng/mL
- AUC/dose [2, 12]: 270.0 ± 99.0 (5) hr × ng × kg/mL × mg
- t1/2 [2, 12]: 5.2 ± 1.0 (5) hr
- Tmax ([2]; 100 mg/kg): 2.0 (5) [2-4] hr
- fill weight of one 00 size capsule [3]: 0.33 gram

Compound: CCCCCCCCCCCCCCCCCCCC(=O)N[C@H]1CCC2(C)C(CC(O)C3C2C[C@H](O)C2(C)C(C(C)CCC(=O)O)CCC32)C1 (stereo in doubt) [Aramchol (free acid), 3β-arachidylamido-7α,12α-dihydroxy-5β-cholan-24-oic acid, reference compound]
- stability [4]: no significant changes to any parameters
- AUCss 0-12 h ([5]; BID for 10 days): 53 µg·h/mL
- Cavg ([5]; BID for 10 days): 4154 ng/mL
- AUC ([5]; human, blood, BID): 53 µg·h/mL
- solubility ([6]; Acetate buffer pH 4.5, 24 h, 37° C.): Not soluble
- solubility [6, 13]: Not soluble
- solubility ([6]; HCl buffer pH 1.2, 24 h, 37° C.): Not soluble
- solubility [6, 14]: Not soluble
- solubility ([6]; Saline pH 5.5, 24 h, 37° C.): Not soluble
- solubility at 24 h ([6]; phosphate buffer, pH 6.5, 24 h): < 1 µg/mL
- solubility at 30 min [6, 15]: 50 µg/mL (≈ 71.2 µM)
- solubility at 24 h ([6]; FaSSIF (pH 6.5), 24 h, 37° C.): 130 µg/mL (≈ 185 µM)
- solubility at 30 min [6, 16]: 660 µg/mL (≈ 940 µM)
- solubility at 24 h ([6]; FeSSIF (pH 5.0), 24 h, 37° C.): 310 µg/mL (≈ 442 µM)
- AUC [7]: 114 µg·h/mL
- Half-life [2, 17]: 4.5 h
- AUC(0-t) [2, 18]: 12.1 ± 3.63 µg·h/mL
- Tmax [2, 19]: 4 h
- Cmax [2, 20]: 1360 ± 359 ng/mL
- AUC/dose [2, 12]: 124.2 ± 38.9 (5) hr × ng × kg/mL × mg
- fill weight of one 00 size capsule [3]: 0.15 gram
- solubility ([8]; FeSSIF, pH 5, fessif, read-out: max solubility in FeSSIF): 660 µg/mL (≈ 940 µM)
- solubility ([8]; aqueous buffer, buffer pH 6.0, read-out: solubility in buffer at pH 6.0): < 1 µg/mL
- AUC0-12 h/AUCinf (in vivo): 0.97
- Ka (in vivo): 0.234 h⁻¹
- V (in vivo): 16893
- clearance (in vivo): 6.82 mL/min
- AUC (in vivo; 100 mg): 901 µg·h/mL
- AUC(0-inf) (in vivo; AUCinf D1): 241 µg·h/mL
- AUC(0-inf) (in vivo; AUCinf from day 11 onwards): 1130 µg·h/mL
- Half-life (in vivo; po, 100 mg, Half-life): 25.9 h
- Bulk density (Bulk and tapped density): 0.15 g/mL
- Tapped density (Bulk and tapped density): 0.17 g/mL

Compound: CCCCCCCCCCCCCCCCCCCC(=O)NC1CCC2(C)C(C1)CC(O)C1C2CC(O)C2(C)C(C(C)CCC(=O)O)CCC12.N (stereo not drawn) [Ammonia]
- Dissolved (50 in g in 1) at 50° C.: No
- salt remains in solution after cooling to 20° C.: no
- Mass uptake (DVS) [1]: 5.4% (stepwise; reversible)

Compound: c1ccc(CNCCNCc2ccccc2)cc1 [Benzathine]
- Dissolved (50 in g in 1) at 50° C. [10]: No

Compound: CN(C)CCO [Deanol]
- Dissolved (50 in g in 1) at 50° C. [10]: Yes
- salt remains in solution after cooling to 20° C. (water, cooled to 20° C.): yes
- Mass uptake (DVS) [1, 11]: 17.3% (stepwise; reversible)

Compound: CCNCC [Diethylamine]
- Dissolved (50 in g in 1) at 50° C. [10]: Yes
- salt remains in solution after cooling to 20° C. (water, cooled to 20° C.): no
- Mass uptake (DVS) [1, 11]: 14.8% (stepwise; reversible)

Compound: NCCO [Ethanolamine]
- Mass uptake (DVS) [1, 11]: 13.2% (stepwise; reversible)

Compound: CCCCCCCCCCCCCCCCCCCC(=O)N[C@H]1CC[C@@]2(C)[C@@H](C1)C[C@@H](O)[C@@H]1[C@@H]2C[C@H](O)[C@]2(C)[C@@H]([C@H](C)CCC(=O)O)CC[C@@H]12 [Tromethamine, 3β-arachidylamido-7α,12α-dihydroxy-5β-cholan-24-oic acid tromethamine salt]
- Dissolved (50 in g in 1) at 50° C. [10]: No
- Mass uptake (DVS) [1, 11]: 9.4% (stepwise; reversible)
- solubility [6, 13]: Gel
- solubility ([6]; Demi-Water (pH 7.8), 24 h, 37° C., listed as tromethamine salt): turned into gets
- solubility [6, 15]: Gel
- solubility ([6]; FaSSIF (pH 6.5), 24 h, 37° C.): Gel
- solubility [6, 16]: Gel
- solubility ([6]; FeSSIF (pH 5.0), 24 h, 37° C.): Gel
- solubility ([6]; PBS pH 7.4, 24 h, 37° C.): Gel
- solubility ([6]; Phosphate buffer pH 6.5, 30 min, 37° C.): Gel
- solubility ([6]; Phosphate buffer pH 6.5, 24 h, 37° C.): Gel
- solubility [6, 14]: Gel
- solubility at 30 min ([6]; aqueous buffer, PBS pH 7.4, 30 min, 37° C.): 23000 µg/mL
- solubility at 30 min ([6]; aqueous buffer, Phosphate buffer pH 7.0, 30 min, 37° C.): 29400 µg/mL
- solubility at 30 min ([6]; saline or isotonic, Saline pH 5.5, 30 min, 37° C.): 30 µg/mL
- solubility at 30 min ([6]; simulated gastric fluid, HCl buffer pH 1.2, 30 min, 37° C.): 20 µg/mL
- solubility at 24 h ([6]; simulated gastric fluid, HCl buffer pH 1.2, 24 h, 37° C.): 290 µg/mL
- solubility at 30 min ([6]; Demi-Water (pH 7.8), 30 min, 37° C.): 45000 µg/mL
- pH of solution ([9]; after solubility test in water, XRPD: Crystalline): 8
- solubility ([9]; XRPD: Crystalline): 32000 to 95000 µg/mL
- solubility ([9]; XRPD: Poorly crystalline): < 11000 µg/mL
- Half-life [2, 17]: 6.5 ± 2.4 h
- AUC(0-t) [2, 18]: 18.6 ± 2.28 µg·h/mL
- Tmax [2, 19]: 2 h
- Cmax [2, 20]: 2250 ± 208 ng/mL
- AUC/dose [2, 12]: 184.7 ± 22.7 (4) hr × ng × kg/mL × mg
- fill weight of one 00 size capsule [3]: 0.31 gram
- solubility at 2 h (physchem): > 50000 µg/mL

Compound: Choline
- Dissolved (50 in g in 1) at 50° C.: Yes
- salt remains in solution after cooling to 20° C.: yes

Compound: Diethanolamine
- Dissolved (50 in g in 1) at 50° C. [10]: Yes
- salt remains in solution after cooling to 20° C. (water, cooled to 20° C.): yes
- Mass uptake (DVS) [1, 11]: 6.9% (stepwise; reversible)

Compound: L-Arginine
- Dissolved (50 in g in 1) at 50° C. [10]: Yes
- salt remains in solution after cooling to 20° C. (water, cooled to 20° C.): no
